Measured values as given in patent US20190351012A1, “TARGETING OF INTERFERON-STIMULATED GENE EXPRESSION TO TREAT INTERFERONOPATHIES” (New York University, priority 2018, published 2019).

Tests used:
[1] = system: ISG54 promoter and G6TI control templates; experiment: In vitro transcription run-off assay with nuclear extracts and recombinant ISGF3; format: biochemical, human; settings: TSA included in run-off reaction, naked DNA templates
From the text: (§1) FIG. 2. […] (A) Nuclear extracts from HEK293T cells expressing activated recombinant ISGF3 (STAT1, STAT2, IRF9 and JAK1) or transfected with vector (Ctl) were programmed with G6TI-CAT (G6TI) or p107 (ISG54) templates. Radiolabeled RNA transcripts were resolved by polyacrylamide-urea gel electrophoresis. Arrow and arrowhead indicate position of the transcripts from G6TI-CAT and p107, respectively. (B) HeLa cells were either left untreated or treated with IFN-α in the absence or presence of TSA (TSA in vivo) before nuclei were isolated for run-on transcription. Where indicated, TSA was added to the elongation reaction in vitro (TSA in vitro). Specific signals from γ-actin, ISG15, ISG56, 6-16, 9-27, IRF9 and GBP transcription were quantified following filter hybridization and normalized to the signal for GAPDH, arbitrarily set to 100. Representative data from three independent experiments are shown. FS2 human diploid fibroblasts were starved for 72 h before being treated with IFN-α for 7.5 h in the absence or presence of TSA. Mononucleosomal DNA fraction was purified from MNase-digested nuclei and analyzed for nucleosome positions by PCR quantitation of protected fragments. All samples were quantified by real-time PCR, except the—53—+1 ISG54 fragment, which was quantified by gel electrophoresis (C). […]

[2] = system: ISG transcription in HeLa cell nuclei; experiment: Run-on nuclear transcription in HeLa nuclei; format: cell-based, human
From the text: as §1, with “Representative data from three independent experiments are shown. FS2 human diploid fibroblasts were starved for 72 h before being treated with IFN-α for 7.5 h in the absence or presence of TSA.” left out
Run-off transcription is largely a measure of transcriptional […]. […] Nuclei were isolated from cells untreated or treated with IFNα, pulse-labeled in vitro with radioactive nucleotides, and specific transcriptional elongation was quantified by filter hybridization (FIG. 2B). […]

[3] = system: ISG54 promoter nucleosomes in FS2 human diploid fibroblasts; experiment: MNase-PCR nucleosome mapping of the ISG54 promoter in FS2 fibroblasts; format: cell-based
From the text: as §1

nuclease sensitivity of segments around TATA box and initiation site ([3]; MNase): minimally affected | IFN-induced increase of nuclease sensitivity of −92 to −33 ISRE segment ([3]; co-treatment with IFN): not prevented
Compound: CC(/C=C/C(=O)NO)=C\[C@@H](C)C(=O)c1ccc(N(C)C)cc1 [TSA, Trichostatin A]
inhibition of basal and ISGF3-dependent transcription in vitro [1]: neither basal nor ISGF3-dependent transcription was inhibited | housekeeping and ISG transcription in nuclear run-on ([2]; TSA added to the in vitro run-on reaction): failed to affect | ISG transcription in isolated nuclei ([2]; cells stimulated with IFN in the presence of TSA (TSA in vivo)): impaired
